“And” between values parts separate entries of the source, which are not always exact repeats. Identical values can stand only once.
Columns and labels:
[1] = target: T1, RpaR (Rhodopseudomonas palustris, UniProt Q6NCZ5); experiment: RpaR agonism reporter gene assay; type: cell-based; details: for EC50: EC50 value, dose response in R. palustris CGA814 reporter; for activation at 1 µM: read-out: Percent activation; for Drop in agonistic activity relative to 1: compared with 2-fluoro cinnamoyl HL 1; for Percent activation: 1 μM synthetic ligand, relative to p-cAHL at 1 μM, triplicate of triplicate, error < ±10%
[2] = tested on: LuxR; details: V. fischeri LuxR; ref 7j, 7l; cited from earlier work
[3] = target: T1, RpaR; experiment: Competitive RpaR antagonism reporter gene assay against p-cAHL; type: cell-based; details: for Percent inhibition: 1 μM synthetic ligand against p-cAHL at its EC50 value (1 nM), negative values indicate agonistic responses, error < ±10%
[4] = tested on: other LuxR-type receptors; details: ref 7j; cited from earlier work
[5] = target: T1, RpaR; details: extracts from wild-type R. palustris grown with the aromatic acid; cited from earlier work

T1 sequence (Q6NCZ5 whole entry): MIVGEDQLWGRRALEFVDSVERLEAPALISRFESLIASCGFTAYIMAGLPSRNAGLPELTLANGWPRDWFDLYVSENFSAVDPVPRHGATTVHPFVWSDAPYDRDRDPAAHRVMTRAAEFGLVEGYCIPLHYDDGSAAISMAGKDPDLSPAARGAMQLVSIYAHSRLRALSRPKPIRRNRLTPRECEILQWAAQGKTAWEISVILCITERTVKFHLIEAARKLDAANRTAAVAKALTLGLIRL

SMILES: O=C(/C=C/c1cccc(O)c1)N[C@H]1CCOC1=O [Compound 16, meta-cAHL]
- EC50 [1]: 144 nM
- activation at 1 µM [1]: 94%

SMILES: O=C(/C=C/c1cccc(F)c1)N[C@H]1CCOC1=O [Compound 2]
- EC50 [1]: 65.6 nM
- Drop in agonistic activity relative to 1 [1]: 20 fold
- activation at 1 µM [1]: 84%

SMILES: O=C(CCC1CCCCC1)N[C@H]1CCOC1=O [Compound B11, cyclohexyl HL]
- LuxR antagonism [2]: strong antagonists

SMILES: O=C(CCc1ccc(O)cc1)N[C@H]1CCOC1=O [Compound 19]
- EC50 [1]: 532 nM
- activation at 1 µM [1]: 72%
- EC50 value higher than p-cAHL ([1]; relative to p-cAHL): 500 fold

SMILES: O=C(/C=C/c1ccccc1Br)N[C@H]1CCOC1=O [Compound 10, 2-bromo cinnamoyl HL]
- EC50 [1]: 77.1 nM
- Drop in agonistic activity relative to 1 [1]: ~ 20 fold
- activation at 1 µM [1]: 118%

SMILES: O=C(CCc1ccc2c(c1)OCO2)N[C@H]1CCOC1=O [Compound E39, 1,3-benzodioxole PPHL]
- IC50 [3]: 228 nM
- Percent inhibition [3]: 63%

SMILES: O=C(CCc1ccc(F)cc1)N[C@H]1CCOC1=O [Compound E29, 4-F PPHL]
- LuxR antagonism [2]: strong antagonists
- IC50 [3]: 300 nM
- Percent inhibition [3]: 70%

SMILES: O=C(COc1ccccc1)N[C@H]1CCOC1=O [Compound E14, POHL]
- Activity as agonist or antagonist in other LuxR-type receptors [4]: largely inactive

SMILES: O=C(/C=C/c1ccccc1F)N[C@H]1CCOC1=O [Compound 1, 2-fluoro cinnamoyl HL]
- EC50 [1]: 3.4 nM
- activation at 1 µM [1]: 99%

SMILES: O=C(CCc1ccc([N+](=O)[O-])cc1)N[C@H]1CCOC1=O [Compound E37, 4-NO2 PPHL]
- LuxR antagonism [2]: strong antagonists
- IC50 [3]: 235 nM
- Percent inhibition [3]: 89%

SMILES: O=C(/C=C/c1ccc(O)c(O)c1)N[C@H]1CCOC1=O [Compound 17, caffeoyl HL]
- Percent activation [1]: 14%

SMILES: O=C(/C=C/c1ccc(O)cc1)N[C@H]1CCOC1=O [p-cAHL, p-coumaroyl HL, reference compound]
- EC50 [1]: 1 nM and ~1 nM

SMILES: COc1cc(C=CC(=O)NC2CCOC2=O)ccc1O (stereo not shown) [Compound 18]
- RpaR agonist activity [5]: inactive

SMILES: O=C(/C=C/c1ccc(F)cc1)N[C@H]1CCOC1=O [Compound 3, 4-fluoro cinnamoyl HL]
- Agonistic activity at 1 μM ([1]; 1 μM): inactive
- Percent activation [1]: 1%

SMILES: O=C(/C=C/c1c(F)cccc1F)N[C@H]1CCOC1=O [Compound 4, 2,6-difluoro cinnamoyl HL]
- EC50 [1]: 4.8 nM
- activation at 1 µM [1]: 101%

SMILES: O=C(COc1cccc([N+](=O)[O-])c1)N[C@H]1CCOC1=O [Compound E25, 3-NO2 POHL]
- LuxR antagonism [2]: strong antagonists
- IC50 [3]: 238 nM
- Percent inhibition [3]: 63%

SMILES: O=C(/C=C/c1ccccc1O)N[C@H]1CCOC1=O [Compound 15, ortho-cAHL]
- EC50 [1]: 1170 nM
- activation at 1 µM [1]: 59%

SMILES: O=C(/C=C/c1ccccc1)N[C@H]1CCOC1=O [Compound B10, cinnamoyl HL]
- EC50 [1]: 32.3 nM
- activation at 1 µM [1]: 65%

— paper PMC3905461 (Chembiochem : a European journal of chemical biology, 2013)
